# Legend:
# barnyardgrass [1] = test: Test A preemergence; format: in vivo, Echinochloa crus-galli
# Procedure, shortened: (§1)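 Visual injury scored 0–100 (100 = complete control) against untreated controls about 10 days after treatment in a greenhouse. Test chemicals, formulated with surfactant in non-phytotoxic solvent, were sprayed on soil preemergence or on 2-10 cm, one- to two-leaf plants postemergence.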
# large (Lg) crabgrass [2] = test: Test A preemergence; format: in vivo, Digitaria sanguinalis
# Procedure, shortened: as §1
# giant foxtail [3] = test: Test A preemergence; format: in vivo, Setaria faberii
# Procedure, shortened: as §1
# morningglory [4] = test: Test A preemergence; format: in vivo, Ipomoea spp.
# Procedure, shortened: as §1
# pigweed [5] = test: Test A preemergence; format: in vivo, Amaranthus retroflexus
# Procedure, shortened: as §1
# velvetleaf [6] = test: Test A preemergence; format: in vivo, Abutilon theophrasti
# Procedure, shortened: as §1
# wheat [7] = test: Test A preemergence; format: in vivo, Triticum aestivum
# Procedure, shortened: as §1
# corn [8] = test: Test A preemergence; format: in vivo, Zea mays
# Procedure, shortened: as §1
# barnyardgrass [9] = test: Test A postemergence; format: in vivo, Echinochloa crus-galli
# Procedure, shortened: as §1
# large (Lg) crabgrass [10] = test: Test A postemergence; format: in vivo, Digitaria sanguinalis
# Procedure, shortened: as §1
# giant foxtail [11] = test: Test A postemergence; format: in vivo, Setaria faberii
# Procedure, shortened: as §1
# morningglory [12] = test: Test A postemergence; format: in vivo, Ipomoea spp.
# Procedure, shortened: as §1
# pigweed [13] = test: Test A postemergence; format: in vivo, Amaranthus retroflexus
# Procedure, shortened: as §1
# velvetleaf [14] = test: Test A postemergence; format: in vivo, Abutilon theophrasti
# Procedure, shortened: as §1
# wheat [15] = test: Test A postemergence; format: in vivo, Triticum aestivum
# Procedure, shortened: as §1
# corn [16] = test: Test A postemergence; format: in vivo, Zea mays
# Procedure, shortened: as §1
# rice [17] = test: Test B flooded paddy test; format: in vivo, Oryza sativa; conditions: Flood, 250 g ai/ha, 0 to 100 scale where 0 is no effect and 100 is complete control
# Procedure, shortened: (§2)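 Post-emergence paddy-water application at the 2-leaf stage, with 3 cm flood kept for the whole test. Response was judged visually relative to controls after 13 to 15 greenhouse days, 0 indicating no effect and 100 complete control.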
# sedge, umbrella [18] = test: Test B flooded paddy test; format: in vivo, Cyperus difformis; conditions: Flood, 250 g ai/ha, 0 to 100 scale where 0 is no effect and 100 is complete control
# Procedure, shortened: as §2
# Heteranthera limosa = test: Test B flooded paddy test; format: in vivo; conditions: Flood, 250 g ai/ha, 0 to 100 scale where 0 is no effect and 100 is complete control
# Procedure, shortened: as §2
# barnyardgrass [19] = test: Test B flooded paddy test; format: in vivo, Echinochloa crus-galli; conditions: Flood, 250 g ai/ha, 0 to 100 scale where 0 is no effect and 100 is complete control
# Procedure, shortened: as §2
# rice [20] = test: Test C flooded paddy test; format: in vivo, Oryza sativa; conditions: Flood, scale 0 to 100 (0 no effect, 100 complete control), 13 to 15 days
# From the text: (§3) At time of treatment, test pots were flooded to 3 cm above the soil surface, treated by application of test compounds directly to the paddy water, and then maintained at that water depth for the duration of the test. Treated plants and controls were maintained in a greenhouse for 13 to 15 days, after which time all species were compared to controls and visually evaluated. […] A dash (-) response means no test result.
# sedge, umbrella [21] = test: Test C flooded paddy test; format: in vivo, Cyperus difformis; conditions: Flood, scale 0 to 100 (0 no effect, 100 complete control), 13 to 15 days
# From the text: as §3
# ducksalad = test: Test C flooded paddy test; format: in vivo, Heteranthera limosa; conditions: Flood, scale 0 to 100 (0 no effect, 100 complete control), 13 to 15 days
# From the text: as §3
# barnyardgrass [22] = test: Test C flooded paddy test; format: in vivo, Echinochloa crus-galli; conditions: Flood, scale 0 to 100 (0 no effect, 100 complete control), 13 to 15 days
# From the text: as §3
# kochia [23] = test: Test A preemergence; format: in vivo, Kochia scoparia; conditions: 1000 g ai/ha, 0 to 100 scale, 0 no effect, 100 complete control, approx. 10 days
# Procedure, shortened: as §1
# ragweed [24] = test: Test A preemergence; format: in vivo, Ambrosia elatior; conditions: 1000 g ai/ha, 0 to 100 scale, 0 no effect, 100 complete control, approx. 10 days
# Procedure, shortened: as §1
# Italian ryegrass [25] = test: Test A preemergence; format: in vivo, Lolium multiflorum; conditions: 1000 g ai/ha, 0 to 100 scale, 0 no effect, 100 complete control, approx. 10 days
# Procedure, shortened: as §1
# kochia [26] = test: Test A postemergence; format: in vivo, Kochia scoparia; conditions: 1000 g ai/ha, 0 to 100 scale, 0 no effect, 100 complete control
# Procedure, shortened: as §1
# ragweed [27] = test: Test A postemergence; format: in vivo, Ambrosia elatior; conditions: 1000 g ai/ha, 0 to 100 scale, 0 no effect, 100 complete control
# Procedure, shortened: as §1
# Italian ryegrass [28] = test: Test A postemergence; format: in vivo, Lolium multiflorum; conditions: 1000 g ai/ha, 0 to 100 scale, 0 no effect, 100 complete control
# Procedure, shortened: as §1
# blackgrass = test: Test A postemergence; format: in vivo, Alopecurus myosuroides; conditions: 1000 g ai/ha, 0 to 100 scale, 0 no effect, 100 complete control
# Procedure, shortened: as §1
# galium = test: Test A postemergence; format: in vivo, Galium aparine; conditions: 1000 g ai/ha, 0 to 100 scale, 0 no effect, 100 complete control
# Procedure, shortened: as §1
# [29] = 125 g ai/ha, 0 to 100 scale where 0 is no effect and 100 is complete control
# [30] = 500 g ai/ha, 0 to 100 scale, 0 no effect, 100 complete control, approx. 10 days
# [31] = 500 g ai/ha, 0 to 100 scale, 0 no effect, 100 complete control
smiles,measurement,setting,value
Cc1ccc(Oc2ncc(Cl)cn2)c(-n2cc(Br)cn2)c1 [Compound 40],"Plant response rating, Barnyardgrass",barnyardgrass [1]; [29],40
same,Barnyardgrass plant response rating,barnyardgrass [1]; [30],50
same,"Plant response rating, Crabgrass, Large",large (Lg) crabgrass [2]; [29],60
same,"Crabgrass, Large plant response rating",large (Lg) crabgrass [2]; [30],80
same,"Plant response rating, Foxtail, Giant",giant foxtail [3]; [29],10
same,"Foxtail, Giant plant response rating",giant foxtail [3]; [30],60
same,"Plant response rating, Morningglory",morningglory [4]; [29],0
same,Morningglory plant response rating,morningglory [4]; [30],0
same,"Plant response rating, Pigweed",pigweed [5]; [29],0
same,Pigweed plant response rating,pigweed [5]; [30],50
same,"Plant response rating, Velvetleaf",velvetleaf [6]; [29],50
same,Velvetleaf plant response rating,velvetleaf [6]; [30],70
same,"Plant response rating, Wheat",wheat [7]; [29],0
same,Wheat plant response rating,wheat [7]; [30],0
same,"Plant response rating, Corn",corn [8]; [29],0
same,Corn plant response rating,corn [8]; [30],0
same,"Plant response rating, Barnyardgrass",barnyardgrass [9]; [29],0
same,"Plant response rating, Barnyardgrass",barnyardgrass [9]; [31],20
same,"Plant response rating, Crabgrass, Large",large (Lg) crabgrass [10]; [29],50
same,"Plant response rating, Crabgrass, Large",large (Lg) crabgrass [10]; [31],70
same,"Plant response rating, Foxtail, Giant",giant foxtail [11]; [29],10
same,"Plant response rating, Foxtail, Giant",giant foxtail [11]; [31],60
same,"Plant response rating, Morningglory",morningglory [12]; [29],70
same,"Plant response rating, Morningglory",morningglory [12]; [31],100
same,"Plant response rating, Pigweed",pigweed [13]; [29],40
same,"Plant response rating, Pigweed",pigweed [13]; [31],60
same,"Plant response rating, Velvetleaf",velvetleaf [14]; [29],100
same,"Plant response rating, Velvetleaf",velvetleaf [14]; [31],100
same,"Plant response rating, Wheat",wheat [15]; [29],0
same,"Plant response rating, Wheat",wheat [15]; [31],0
same,"Plant response rating, Corn",corn [16]; [29],0
same,"Plant response rating, Corn",corn [16]; [31],0
same,"Plant response rating, Rice",rice [17],15
same,"Plant response rating, Sedge, Umbrella","sedge, umbrella [18]",80
same,"Plant response rating, Ducksalad",Heteranthera limosa,80
same,"Plant response rating, Barnyardgrass",barnyardgrass [19],20
same,"Plant response rating, Rice",rice [20]; 31 g ai/ha,0
same,"Plant response rating, Rice",rice [20]; 62 g ai/ha,0
same,"Plant response rating, Rice",rice [20]; 125 g ai/ha,0
same,"Plant response rating, Rice",rice [20]; 250 g ai/ha,0
same,"Plant response rating, Sedge, Umbrella","sedge, umbrella [21]; 31 g ai/ha",50
same,"Plant response rating, Sedge, Umbrella","sedge, umbrella [21]; 62 g ai/ha",75
same,"Plant response rating, Sedge, Umbrella","sedge, umbrella [21]; 125 g ai/ha",75
same,"Plant response rating, Sedge, Umbrella","sedge, umbrella [21]; 250 g ai/ha",75
same,"Plant response rating, Ducksalad",ducksalad; 31 g ai/ha,0
same,"Plant response rating, Ducksalad",ducksalad; 62 g ai/ha,0
same,"Plant response rating, Ducksalad",ducksalad; 125 g ai/ha,40
same,"Plant response rating, Ducksalad",ducksalad; 250 g ai/ha,60
same,"Plant response rating, Barnyardgrass",barnyardgrass [22]; 31 g ai/ha,0
same,"Plant response rating, Barnyardgrass",barnyardgrass [22]; 62 g ai/ha,0
same,"Plant response rating, Barnyardgrass",barnyardgrass [22]; 125 g ai/ha,15
same,"Plant response rating, Barnyardgrass",barnyardgrass [22]; 250 g ai/ha,15
"FC(F)(F)c1cnn(-c2c(Oc3ncc(Cl)cn3)cccc2-c2nnco2)c1 [Compound 298, 2-[3-[(5-chloro-2-pyrimidinyl)oxy]-2-[4-(trifluoromethyl)-1H-pyrazol-1-yl]phenyl]-1,3,4-oxadiazole]",pest or weed control at 1000 g/ha,"barnyardgrass [1]; Echinochloa crus-galli, pre-emergence, 240 h, 1000 g ai/ha, 0 to 100 scale, 0 no effect, 100 complete control, approx. 10 days, read-out: Barnyardgrass plant response rating",100%
same,Kochia plant response rating,kochia [23],90
same,Ragweed plant response rating,ragweed [24],90
same,"Ryegrass, Italian plant response rating",Italian ryegrass [25],50
same,pest or weed control at 1000 g/ha,"giant foxtail [3]; Setaria faberi, pre-emergence, 240 h, 1000 g ai/ha, 0 to 100 scale, 0 no effect, 100 complete control, approx. 10 days, read-out: Foxtail, Giant plant response rating",100%
same,pest or weed control at 1000 g/ha,"pigweed [5]; Amaranthus retroflexus, pre-emergence, 240 h, 1000 g ai/ha, 0 to 100 scale, 0 no effect, 100 complete control, approx. 10 days, read-out: Pigweed plant response rating",100%
same,pest or weed control at 1000 g/ha,"barnyardgrass [9]; Echinochloa crus-galli, post-emergence, 240 h, 1000 g ai/ha, 0 to 100 scale, 0 no effect, 100 complete control, read-out: Plant response rating Barnyardgrass",90%
same,"Plant response rating, Kochia",kochia [26],100
same,"Plant response rating, Ragweed",ragweed [27],90
same,"Plant response rating, Ryegrass, Italian",Italian ryegrass [28],70
same,pest or weed control at 1000 g/ha,"giant foxtail [11]; Setaria faberi, post-emergence, 240 h, 1000 g ai/ha, 0 to 100 scale, 0 no effect, 100 complete control, read-out: Plant response rating Foxtail, Giant",90%
same,pest or weed control at 1000 g/ha,"pigweed [13]; Amaranthus retroflexus, post-emergence, 240 h, 1000 g ai/ha, 0 to 100 scale, 0 no effect, 100 complete control, read-out: Plant response rating Pigweed",100%
same,plant injury at 1000 g/ha,"wheat [15]; Triticum aestivum, post-emergence, 240 h, 1000 g ai/ha, 0 to 100 scale, 0 no effect, 100 complete control, read-out: Plant response rating Wheat",40%
same,plant injury at 1000 g/ha,"corn [16]; Zea mays, post-emergence, 240 h, 1000 g ai/ha, 0 to 100 scale, 0 no effect, 100 complete control, read-out: Plant response rating Corn",70%
same,"Plant response rating, Blackgrass",blackgrass,80
same,"Plant response rating, Galium",galium,80
same,plant injury at 250 g/ha,"rice [17]; Oryza sativa, read-out: Plant response rating, Rice",0%
same,pest or weed control at 250 g/ha,"sedge, umbrella [18]; Cyperus difformis, read-out: Plant response rating, Sedge, Umbrella",30%
same,pest or weed control at 250 g/ha,"Heteranthera limosa; Heteranthera limosa, read-out: Plant response rating, Ducksalad",0%
same,pest or weed control at 250 g/ha,"barnyardgrass [19]; Echinochloa crus-galli, read-out: Plant response rating, Barnyardgrass",0%

# Reference: patent publication US9695155B2, “Herbicidal substituted pyrimidinyloxy benzene compounds” (E. I. DU PONT DE NEMOURS AND COMPANY, priority 2013, dated 2017)
